Source: patent publication US10793556B2, “8-amino-2-oxo-1,3-diaza-spiro-[4.5]-decane derivatives” (Grünenthal GmbH, priority 2016, dated 2020)

Molecular target: human mu-opioid peptide (hMOP) receptor (Homo sapiens (Human), UniProt P35372)
Test: hMOP receptor binding assay (SPA, [3H]naloxone)

human mu-opioid peptide (hMOP) receptor, sequence (P35372 whole entry): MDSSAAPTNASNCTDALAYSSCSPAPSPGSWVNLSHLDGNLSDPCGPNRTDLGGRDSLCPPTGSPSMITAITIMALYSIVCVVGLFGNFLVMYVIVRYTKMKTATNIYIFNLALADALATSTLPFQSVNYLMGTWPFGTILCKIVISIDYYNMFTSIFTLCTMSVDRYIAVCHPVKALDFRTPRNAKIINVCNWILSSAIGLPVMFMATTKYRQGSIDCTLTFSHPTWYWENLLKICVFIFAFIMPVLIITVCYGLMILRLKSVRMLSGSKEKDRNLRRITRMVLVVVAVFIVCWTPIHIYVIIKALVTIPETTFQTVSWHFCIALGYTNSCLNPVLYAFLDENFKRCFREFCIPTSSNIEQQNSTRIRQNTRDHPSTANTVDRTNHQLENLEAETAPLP

CN(C)[C@]1(c2ccccc2)CC[C@]2(CC1)CN(CC(C)(C)N1C(=O)CCC1=O)C(=O)N2CC1CC1 [SC_4084, CIS-1-[2-[1-(Cyclopropyl-methyl)-8-dimethylamino-2-oxo-8-phenyl-1,3-diazaspiro[4.5]decan-3-yl]-1,1-dimethyl-ethyl]-pyrrolidine-2,5-dione]
Ki: 2.47 µM
